Data: patent publication US9980942B2, “Rejuvenation of precursor cells” (Children's Hospital Medical Center, priority 2012, dated 2018)
Entries after “also recorded” stand apart in the source; their conditions may differ.

Columns and labels:
[1] = Weight of young and aged mice after CASIN; type: in vivo, C57BL/6 mice; conditions: aged mice, 2.4 mg/kg twice a day for 5 days intraperitoneal, after 1 week
Protocol: CASIN was given at a dose of 2.4 mg/kg twice a day 6 hours apart for 5 days via intraperitoneal injection in both young (10-12 wk old) and aged (22-24 month old) C57BL/6 mice. Aged C57BL/6 mice present with elevated Cdc42 activity in multiple tissues. Weight of the mice was determined in the young and aged control group (no CASIN, just vehicle (PBS/15% Ethanol)) at initiation of the experiment and after 1 week, as well as in the CASIN treated groups (young and aged) at initiation and 1 week after.

skin = assay: Topical rejuvenation of dermal tissue; type: in vivo; conditions: aged mice, topical non-transdermal formulation
Protocol: To further assess the effects of in vivo administration of CASIN on aging parameters in the skin, aged mice are treated with CASIN as described in Example 5. However, instead of intraperitoneal injection, CASIN is administered topically in a formulation designed for non-transdermal use. The treated and untreated aged and young mice are then tested for skin thickness and wound healing.

skin epithelium = assay: In vivo rejuvenation of skin epithelium (immunohistochemistry, skin thickness); parameters: species or system mice
Protocol: (§1) To test the extent to which CASIN rejuvenates skin and intestinal epithelium in vivo, aged (22-24 month old B1 6) and young (10-12 week old B1 6) mice were injected with CASIN twice daily (2.4 mg/Kg in PBS and 15% EtOH). A group of control mice in each age group were not given the drug. The injections were given 6 hours apart for 5 days. After 28 days, the mice were sacrificed and skin and intestinal samples were processed for immunohistochemistry.
To further assess the effects of in vivo administration of CASIN on aging parameters in the skin, aged mice were treated with CASIN as described in Example 5. The treated and untreated aged and young mice were then tested for skin thickness.

intestinal epithelium = assay: In vivo rejuvenation of intestinal epithelium (immunohistochemistry); conditions: vs untreated aged mice
Protocol: as §1
To further assess the effects of in vivo administration of CASIN on aging parameters in the intestinal epithelium, aged mice were treated with CASIN as described in Example 5. After 28 days, the mice were sacrificed and intestinal samples were processed for immunohistochemistry, including staining for intestinal stem cell markers Bmi1 and Lgr5.

[2] = aged mice treated as in Example 5, after 28 days

For `OCCNC1CCCc2c1[nH]c1ccc(-c3ccccc3)cc21` (centres unmarked) [CASIN], the weight [1] was “significant reduction; also recorded: weight loss”, the skin thickness (skin) was “approximately equal to that of young mice” and the wound healing (skin) was “respond similarly or nearly identical to the skin of young mice”. For the same compound, the skin thickness (skin epithelium; aged mice treated as in Example 5) was “approximately equal to that of young mice”, the “number and density of hair follicles” value (skin epithelium; aged mice, 2.4 mg/Kg twice daily for 5 days, after 28 days, vs untreated aged mice) was “marked improvement” and the “number of stem cells in crypts (Bmi1 and Lgr5 staining)” value (intestinal epithelium; [2]) was “renewed number of stem cells”. For the same compound, the “shape, size and distribution of villi and crypts” value (intestinal epithelium; [2]) was “marked improvement” and the “shape, number and density of crypts” value (intestinal epithelium; aged mice, 2.4 mg/Kg twice daily for 5 days, after 28 days) was “marked improvement”.
